Results reported in PMC8070791, “Synthesis of a Coumarin-Based PPARγ Fluorescence Probe for Competitive Binding Assay” (International Journal of Molecular Sciences, 2021).
Like-named read-outs stand apart in the source and are kept apart here.

Key:
[1] = UV-visible absorption and fluorescence spectroscopic analyses in solvents; assay type: physicochemical; details: for Q.Y.: reference quinine sulfate in 0.1 M H2SO4; for Q.Y. (Φ), range over solvents: in CH2Cl2, THF, MeOH, or H2O
Description: We evaluated the fluorescence properties of PPARγ ligands 2 and 6 (Figure 4) by measuring the fluorescence spectra and quantum yields (Q.Y.) in CH2Cl2, THF, MeOH, or H2O. […] The dielectric constant of each solvent was THF: 7.4, CH2Cl2: 8.9, MeOH: 32.6, and H2O: 78.5 [41, 42].
Stock solutions of model coumarin compounds PPAR ligands 1, 2, and 6 were prepared in DMSO, and stored in the dark at −20 °C. The stock solutions were diluted (2 μM) with solvents (CH2Cl2, THF, MeOH, and H2O) and then the UV-visible absorption and fluorescence signals were measured by a spectrometer. The fluorescence quantum yields of coumarin analogues were calculated using quinine sulfate (Φ = 0.577 in 0.1 M H2SO4) as a reference standard.

[2] = molecular target: T1, PPARγ (Homo sapiens, UniProt P37231); experiment: Transactivation dual luciferase assay in COS-7 cells with GAL4-PPARγ chimera; assay type: cell-based; details: for EC50: PPARγ transcriptional activity; for Transcriptional activity (in words): compared with rosiglitazone
T1 sequence (P37231 232-505 limits assumed): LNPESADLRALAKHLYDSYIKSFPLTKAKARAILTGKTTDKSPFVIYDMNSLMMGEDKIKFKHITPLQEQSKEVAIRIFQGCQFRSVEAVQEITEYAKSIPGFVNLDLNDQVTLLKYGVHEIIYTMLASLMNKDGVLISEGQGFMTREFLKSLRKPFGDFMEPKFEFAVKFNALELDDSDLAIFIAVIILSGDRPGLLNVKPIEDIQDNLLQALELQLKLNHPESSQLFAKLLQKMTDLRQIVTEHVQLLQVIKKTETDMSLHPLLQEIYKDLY
Description: Transactivation in COS-7 cells was measured using a dual luciferase assay according to a previously reported procedure. EC50s were calculated by GraphPad Prism 6 (GraphPad Software, San Diego, USA) (<A>LogEC = LogEC50Control <~A>LogEC = LogEC50Control + log(EC50Ratio) Y = Bottom + (Top-Bottom)/(1 + 10^((LogEC-X) × HillSlope))).
The data represent the mean ± SD of three independent experiments.
Biological experiments section
COS-7 cells (RIKEN BRC) was cultured in Dulbecco’s Modified Eagle’s medium (DMEM) (Sigma-
Aldrich) supplemented with 5% heat inactivated fetal bovine serum (FBS) (HyClone) and 1%
penicillin-streptomycin (containing 10000 U/mL penicillin and 10000 µg/mL streptomycin; Nacalai

[3] = molecular target: T2, hPPARγ-LBD (Homo sapiens, UniProt P37231); experiment: Kd determination by fluorescence intensity at 410 nm on adding hPPARγ-LBD; assay type: binding; details: probe 1 μM, Ex 367 nm, Tris–HCl buffer
T2 construct: The human PPARγ-LBD (residues 204−477) was expressed; 6×His (TEV-cleavable) (N, cleaved yes); made in house; host or cells: E. coli Rosetta (DE3)
T2 sequence (P37231 204-477 isoform P37231-2): T1 sequence (P37231 232-505 limits assumed)
Description: We examined whether 2 and 6 were useful for PPARγ binding assays. […] The fluorescence spectra were measured by adding hPPARγ-LBD (0.05 to 8.0 μM) in Tris–HCl buffer to 2 (1 μM) (Figure 7a). The fluorescence maxima shifted to shorter wavelength and the fluorescence intensity increased upon increasing the concentration of PPARγ-LBD.
The assay buffer was measured as the background for fluorescence spectrum. […] The specific equilibrium binding constant (Kd) was derived using GraphPad Prism6 (Y = Bmax × X^h/(Kd^h + X^h) (X: concentration of PPARγ-LBD [nM], Y: fluorescence intensity at 410 nm, h: Hill slope).
Figure 7 (a) Fluorescence spectra of 2 (1 µM) upon addition to hPPARγ-LBD (0.05–8.0 µM) in Tris–HCl buffer with Ex = 367 nm. (b) Fluorescence intensity of 2 at 410 nm depending on the concentration of hPPARγ-LBD. Data are mean ± SD (n = 3).

[4] = test system: PPARγ; parameters: method as in PMID 11698662; details: read-out: The reported EC50 value; cited from earlier work
[5] = test system: PPARγ; parameters: method as in PMID 17335769; details: read-out: The reported IC50 value; cited from earlier work
[6] = test system: PPARγ; parameters: method as in PMID 19053776; details: read-out: The reported EC50 value; cited from earlier work

Row | SMILES | Absmax ([1]; In CH2Cl2, 2 μM) [nm] | Emmax ([1]; In CH2Cl2, 2 μM) [nm] | Δ ([1]; In CH2Cl2, 2 μM) [nm] | Q.Y. ([1]; In CH2Cl2) | Absmax ([1]; In H2O, 2 μM) [nm] | Emmax ([1]; In H2O, 2 μM) [nm] | Δ ([1]; In H2O, 2 μM) [nm] | Q.Y. ([1]; In H2O) | Absmax ([1]; In MeOH, 2 μM) [nm] | Emmax ([1]; In MeOH, 2 μM) [nm] | Δ ([1]; In MeOH, 2 μM) [nm] | Q.Y. ([1]; In MeOH) | Absmax ([1]; In THF, 2 μM) [nm] | Emmax ([1]; In THF, 2 μM) [nm] | Δ ([1]; In THF, 2 μM) [nm] | Q.Y. ([1]; In THF) | EC50 [2] [µM] | Transcriptional activity (in words) [2] | Q.Y. (Φ), range over solvents [1] | Kd [3] [µM] | other results
1 | COc1ccc2c(N(C)CCOc3ccc(CC4SC(=O)NC4=O)cc3)cc(=O)oc2c1 (stereo not drawn) [Compound 1] | 316 | 469 | 153 | 0.00359 | 312 | 451 | 139 | 0.00369 | 314 | 392 | 78 | 0.0039 | 314 | 467 | 153 | 0.00461 | 0.18 | comparable to rosiglitazone | – | – | –
3 | CN(CCOc1ccc(CC2SC(=O)NC2=O)cc1)c1ccccn1 (stereo not drawn) [Rosiglitazone] | – | – | – | – | – | – | – | – | – | – | – | – | – | – | – | – | – | – | – | – | EC50 [6]: […]; EC50 [4]: 0.018 ± 0.004 µM; IC50 [5]: […]

Further lines, with some results ahead:

Row | Absmax ([1]; In CH2Cl2, 2 μM) [nm] | Emmax ([1]; In CH2Cl2, 2 μM) [nm] | Δ ([1]; In CH2Cl2, 2 μM) [nm] | Q.Y. ([1]; In CH2Cl2) | Absmax ([1]; In H2O, 2 μM) [nm] | Emmax ([1]; In H2O, 2 μM) [nm] | Δ ([1]; In H2O, 2 μM) [nm] | Q.Y. ([1]; In H2O) | Absmax ([1]; In MeOH, 2 μM) [nm] | Emmax ([1]; In MeOH, 2 μM) [nm] | Δ ([1]; In MeOH, 2 μM) [nm] | Q.Y. ([1]; In MeOH) | Absmax ([1]; In THF, 2 μM) [nm] | Emmax ([1]; In THF, 2 μM) [nm] | Δ ([1]; In THF, 2 μM) [nm] | Q.Y. ([1]; In THF) | EC50 [2] [µM] | Transcriptional activity (in words) [2] | Q.Y. (Φ), range over solvents [1] | Kd [3] [µM] | SMILES | other results
4 | 359 | 423 | 64 | 0.541 | 364 | 462 | 98 | 0.143 | 359 | 449 | 90 | 0.532 | 354 | 416 | 62 | 0.191 | 0.034 | comparable to rosiglitazone | 0.143–0.541 | 1.56 ± 0.0936 | CCN(CC)c1ccc2c(N(C)CCOc3ccc(CC4SC(=O)NC4=O)cc3)cc(=O)oc2c1 (stereo not drawn) [Compound 2, 5-(4-(2-((7-(diethylamino)-2-oxo-2H-chromen-4-yl) (methyl)amino)ethoxy)benzyl)thiazolidine-2,4-dione] | –
5 | 359 | 423 | 64 | 0.764 | 369 | 461 | 92 | 0.0865 | 358 | 449 | 91 | 0.432 | 353 | 416 | 63 | 0.172 | 0.35 | partial agonistic activity | 0.0865–0.764 | 4.08 ± 0.712 | CCN1C(=O)SC(Cc2ccc(OCCN(C)c3cc(=O)oc4cc(N(CC)CC)ccc34)cc2)C1=O (stereo not drawn) [Compound 6, 5-(4-(2-((7-(diethylamino)-2-oxo-2H-chromen-4-yl)(methyl)amino)ethoxy)benzyl)-3-ethylthiazolidine-2,4-dione] | –
